Reference: US20250270172A1, “Pyrimidine Derivatives As Modulators of the 5-HT2A Serotonin Receptor Useful For The Treatment of Disorders Related Thereto” (Arena Pharmaceuticals, Inc., priority 2020, published 2025)

molecular target: 5-HT2A (Homo sapiens (Human), UniProt P28223); assay: Radioligand binding assay, [^3H]5-HT competition, 5-HT2A; settings: [^3H]5-HT radioligand, membranes of HEK293 cells expressing recombinant 5-HT2A; Ki from IC50 by Cheng-Prusoff; read-out: 5-HT2A serotonin binding Ki value
Sequence (P28223 whole entry): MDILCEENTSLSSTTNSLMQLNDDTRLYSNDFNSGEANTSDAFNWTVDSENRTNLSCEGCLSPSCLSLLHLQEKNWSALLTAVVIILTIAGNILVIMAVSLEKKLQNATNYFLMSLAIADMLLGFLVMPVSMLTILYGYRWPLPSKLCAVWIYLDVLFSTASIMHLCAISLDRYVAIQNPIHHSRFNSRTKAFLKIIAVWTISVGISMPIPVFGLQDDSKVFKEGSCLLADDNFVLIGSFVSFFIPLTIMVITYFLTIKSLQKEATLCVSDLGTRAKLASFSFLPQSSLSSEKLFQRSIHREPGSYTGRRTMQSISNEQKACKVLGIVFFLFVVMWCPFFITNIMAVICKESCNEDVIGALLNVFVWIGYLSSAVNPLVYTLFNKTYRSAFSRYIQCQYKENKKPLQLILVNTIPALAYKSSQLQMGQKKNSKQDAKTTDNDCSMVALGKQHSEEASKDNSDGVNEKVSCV

Row | Compound | Ki [µM]
1 | COCCNCCOc1ccc(NC(=O)c2ccccc2)cc1-c1c(C)ncnc1C [Compound 371, N-(3-(4,6-dimethylpyrimidin-5-yl)-4-(2-((2-methoxyethyl)amino)ethoxy)phenyl)benzamide] | 0.00477
2 | COCCNCCOc1ccc(NC(=O)c2cccc(OC)c2)cc1-c1c(C)ncnc1C [Compound 372, N-(3-(4,6-dimethylpyrimidin-5-yl)-4-(2-((2-methoxyethyl)amino)ethoxy)phenyl)-3-methoxybenzamide] | 0.00199
3 | COCCNCCOc1ccc(NC(=O)c2cccc(F)c2)cc1-c1c(C)ncnc1C [Compound 373, N-(3-(4,6-dimethylpyrimidin-5-yl)-4-(2-((2-methoxyethyl)amino)ethoxy)phenyl)-3-fluorobenzamide] | 0.00173
4 | COCCNCCOc1ccc(NC(=O)c2ccc(F)cc2)cc1-c1c(C)ncnc1C [Compound 374, N-(3-(4,6-dimethylpyrimidin-5-yl)-4-(2-((2-methoxyethyl)amino)ethoxy)phenyl)-4-fluorobenzamide] | 0.00344
5 | COCCNCCOc1ccc(NC(=O)c2c(F)cnn2C)cc1-c1c(C)ncnc1C [Compound 375, N-(3-(4,6-dimethylpyrimidin-5-yl)-4-(2-((2-methoxyethyl)amino)ethoxy)phenyl)-4-fluoro-1-methyl-1H-pyrazole-5-carboxamide] | 0.0133
6 | COCCN(C)CCOc1ccc(NC(=O)c2ccccc2)cc1-c1c(C)ncnc1C [Compound 376, N-(3-(4,6-dimethylpyrimidin-5-yl)-4-(2-((2-methoxyethyl) (methyl)amino)ethoxy)phenyl)benzamide] | 0.0633
7 | COCCN(C)CCOc1ccc(NC(=O)c2cccc(OC)c2)cc1-c1c(C)ncnc1C [Compound 377, N-(3-(4,6-dimethylpyrimidin-5-yl)-4-(2-((2-methoxyethyl)(methyl)amino)ethoxy)phenyl)-3-methoxybenzamide] | 0.00264
8 | COCCN(C)CCOc1ccc(NC(=O)c2cccc(F)c2)cc1-c1c(C)ncnc1C [Compound 378, N-(3-(4,6-dimethylpyrimidin-5-yl)-4-(2-((2-methoxyethyl)(methyl)amino)ethoxy)phenyl)-3-fluorobenzamide] | 0.0125
9 | COCCN(C)CCOc1ccc(NC(=O)c2ccc(F)cc2)cc1-c1c(C)ncnc1C [Compound 379, N-(3-(4,6-dimethylpyrimidin-5-yl)-4-(2-((2-methoxyethyl)(methyl)amino)ethoxy)phenyl)-4-fluorobenzamide] | 0.00838
10 | COCCN(C)CCOc1ccc(NC(=O)c2c(F)cnn2C)cc1-c1c(C)ncnc1C [Compound 380, N-(3-(4,6-dimethylpyrimidin-5-yl)-4-(2-((2-methoxyethyl)(methyl)amino)ethoxy)phenyl)-4-fluoro-1-methyl-1H-pyrazole-5-carboxamide] | 0.00947
11 | Cc1ncnc(C)c1-c1cc(NC(=O)c2ccccc2)ccc1OCCN1C[C@@H]2C[C@H]1CO2 [Compound 381, N-(4-(2-((1S,4S)-2-oxa-5-azabicyclo[2.2.1]heptan-5-yl)ethoxy)-3-(4,6-dimethylpyrimidin-5-yl)phenyl)benzamide] | 0.00554
12 | Cc1ncnc(C)c1-c1cc(NC(=O)C2(F)CC2)ccc1OCCN1C[C@@H]2C[C@H]1CO2 [Compound 382, N-(4-(2-((1S,4S)-2-oxa-5-azabicyclo[2.2.1]heptan-5-yl)ethoxy)-3-(4,6-dimethylpyrimidin-5-yl)phenyl)-1-fluorocyclopropane-1-carboxamide] | 0.00881
13 | Cc1ncnc(C)c1-c1cc(NC(=O)c2ccnn2C)ccc1OCCN1C[C@@H]2C[C@H]1CO2 [Compound 383, N-(4-(2-((1S,4S)-2-oxa-5-azabicyclo[2.2.1]heptan-5-yl)ethoxy)-3-(4,6-dimethylpyrimidin-5-yl)phenyl)-1-methyl-1H-pyrazole-5-carboxamide] | 0.00889
14 | Cc1ncnc(C)c1-c1cc(NC(=O)c2ccccc2)ccc1OCCN1C[C@H]2C[C@H]2C1 [Compound 384, N-[4-[2-[(1R,5S)-3-azabicyclo[3.1.0]hexan-3-yl]ethoxy]-3-(4,6-dimethylpyrimidin-5-yl)phenyl]benzamide] | 0.00363
15 | Cc1ncnc(C)c1-c1cc(NC(=O)C2CC2)ccc1OCCN1CC(F)C1 [Compound 386, N-[3-(4,6-Dimethylpyrimidin-5-yl)-4-[2-(3-fluoroazetidin-1-yl)ethoxy]phenyl]cyclopropanecarboxamide] | 0.00148
16 | Cc1ncnc(C)c1-c1cc(NC(=O)c2ccccc2)ccc1OCCN1CC(F)C1 [Compound 387, N-[3-(4,6-dimethylpyrimidin-5-yl)-4-[2-(3-fluoroazetidin-1-yl)ethoxy]phenyl]benzamide] | 0.0133
17 | Cc1ncnc(C)c1-c1cc(NC(=O)C2CC2)ccc1OCCN1CC(O)C1 [Compound 388, N-[3-(4,6-dimethylpyrimidin-5-yl)-4-[2-(3-hydroxyazetidin-1-yl)ethoxy]phenyl]cyclopropanecarboxamide] | 0.0137
18 | Cc1ncnc(C)c1-c1cc(NC(=O)c2ccccc2)ccc1OCCN1CC(O)C1 [Compound 389, N-[3-(4,6-dimethylpyrimidin-5-yl)-4-[2-(3-hydroxyazetidin-1-yl)ethoxy]phenyl]benzamide] | 0.0112
19 | Cc1ncnc(C)c1-c1cc(NC(=O)C2CC2)ccc1OCCN1CCOCC1 [Compound 390, N-[3-(4,6-dimethylpyrimidin-5-yl)-4-(2-morpholinoethoxy)phenyl]cyclopropanecarboxamide] | 0.00525

Row | Compound | Ki [µM]
20 | Cc1ncncc1-c1cc(NC(=O)C2CC2)ccc1OCCN1CCOCC1 [Compound 391, N-(3-(4-methylpyrimidin-5-yl)-4-(2-morpholinoethoxy)phenyl)cyclopropanecarboxamide] | 0.0253
21 | Cc1ncnc(C)c1-c1cc(NC(=O)[C@@H]2C[C@@H]2F)ccc1OCCN1CCOCC1 [Compound 392, (1S,2S)—N-[3-(4,6-dimethylpyrimidin-5-yl)-4-(2-morpholinoethoxy)phenyl]-2-fluoro-cyclopropanecarboxamide] | 0.0152
22 | Cc1ncoc1C(=O)Nc1ccc(OCCN2CCOCC2)c(-c2c(C)ncnc2C)c1 [Compound 393, N-(3-(4,6-dimethylpyrimidin-5-yl)-4-(2-morpholinoethoxy)phenyl)-4-methyloxazole-5-carboxamide] | 0.0112
23 | Cc1ncnc(C)c1-c1cc(NC(=O)c2ccnn2C)ccc1OCCN1CCOCC1 [Compound 394, N-(3-(4,6-dimethylpyrimidin-5-yl)-4-(2-morpholinoethoxy)phenyl)-1-methyl-1H-pyrazole-5-carboxamide] | 0.013
24 | CCCC(=O)Nc1ccc(OC2CNC2)c(-c2c(C)ncnc2C)c1 [Compound 397, N-(4-(azetidin-3-yloxy)-3-(4,6-dimethylpyrimidin-5-yl)phenyl) butyramide] | 0.00859
25 | Cc1ncnc(C)c1-c1cc(NC(=O)c2ccnn2C)ccc1OC1CNC1 [Compound 399, N-(4-(azetidin-3-yloxy)-3-(4,6-dimethylpyrimidin-5-yl)phenyl)-1-methyl-1H-pyrazole-5-carboxamide] | 0.0128
26 | CCOC1CC1C(=O)Nc1ccc(OCCN2CCOCC2)c(-c2c(C)ncnc2C)c1 (stereo not shown) [Compound 401, N-(3-(4,6-dimethylpyrimidin-5-yl)-4-(2-morpholinoethoxy)phenyl)-2-ethoxycyclopropane-1-carboxamide] | 0.0309
27 | Cc1ncnc(C)c1-c1cc(NC(=O)c2c(F)cnn2C)ccc1OC1CNC1 [Compound 402, N-(4-(azetidin-3-yloxy)-3-(4,6-dimethylpyrimidin-5-yl)phenyl)-4-fluoro-1-methyl-1H-pyrazole-5-carboxamide] | 0.00287
28 | Cc1ncnc(C)c1-c1cc(NC(=O)C2CC2)ccc1O[C@@H]1CCNC1 [Compound 403, N-[3-(4,6-dimethylpyrimidin-5-yl)-4-[(3R)-pyrrolidin-3-yl]oxy-phenyl]cyclopropanecarboxamide] | 0.0249
29 | Cc1ncnc(C)c1-c1cc(NC(=O)C2CC2)ccc1O[C@H]1CCNC1 [Compound 404, (S)—N-(3-(4,6-dimethylpyrimidin-5-yl)-4-(pyrrolidin-3-yloxy)phenyl)cyclopropanecarboxamide] | 0.0692
30 | Cc1ncnc(C)c1-c1cc(NC(=O)C2CC2)ccc1OC[C@H]1CCN1 [Compound 405, N-[4-[[(2R)-azetidin-2-yl]methoxy]-3-(4,6-dimethylpyrimidin-5-yl)phenyl]cyclopropanecarboxamide] | 0.0524
31 | Cc1ncnc(C)c1-c1cc(NC(=O)C2CC2)ccc1OC[C@@H]1CCN1 [Compound 406, (S)—N-(4-(azetidin-2-ylmethoxy)-3-(4,6-dimethylpyrimidin-5-yl)phenyl)cyclopropanecarboxamide] | 0.057
32 | Cc1ncnc(C)c1-c1cc(NC(=O)C2CC2)ccc1OC[C@@H]1CCCN1 [Compound 407, N-[3-(4,6-dimethylpyrimidin-5-yl)-4-[[(2S)-pyrrolidin-2-yl]methoxy]phenyl]cyclopropanecarboxamide] | 0.168
33 | Cc1ncnc(C)c1-c1cc(NC(=O)C2CC2)ccc1OC[C@H]1CCCN1 [Compound 408, (R)—N-(3-(4,6-dimethylpyrimidin-5-yl)-4-(pyrrolidin-2-ylmethoxy)phenyl)cyclopropanecarboxamide] | 0.0299
34 | Cc1ncnc(C)c1-c1cc(NC(=O)[C@H]2C[C@H]2F)ccc1O[C@@H]1CCCNC1 [Compound 410, (1R,2R)—N-(3-(4,6-dimethylpyrimidin-5-yl)-4-(((R)-piperidin-3-yl)oxy)phenyl)-2-fluorocyclopropane-1-carboxamide] | 0.0374
35 | Cc1ncnc(C)c1-c1cc(NC(=O)[C@@H]2C[C@@H]2F)ccc1O[C@@H]1CCCNC1 [Compound 411, (1S,2S)—N-(3-(4,6-dimethylpyrimidin-5-yl)-4-(((R)-piperidin-3-yl)oxy)phenyl)-2-fluorocyclopropane-1-carboxamide] | 0.0128
36 | Cc1ncsc1C(=O)Nc1ccc(O[C@@H]2CCCNC2)c(-c2c(C)ncnc2C)c1 [Compound 412, (R)—N-(3-(4,6-dimethylpyrimidin-5-yl)-4-(piperidin-3-yloxy)phenyl)-4-methylthiazole-5-carboxamide] | 0.02
37 | Cc1nc(C)c(C(=O)Nc2ccc(O[C@@H]3CCCNC3)c(-c3c(C)ncnc3C)c2)s1 [Compound 413, (R)—N-(3-(4,6-dimethylpyrimidin-5-yl)-4-(piperidin-3-yloxy)phenyl)-2,4-dimethylthiazole-5-carboxamide] | 0.255
